For the experiment, the target named is vascular angiotensin II receptors. The experiment is described as follows: 125I-angiotensin II radioligand binding assay. The conditions noted are these: particular fraction from rat mesenteric arteries, 80 pM 125I-angiotensin II, 1 hour at 25°C; concentration needed to displace 50% of the total specifically bound angiotensin II. As for the experimental part:
Angiotensin II antagonist activity of the compounds of Formula (I) is assessed by in vitro and in vivo methods. In vitro antagonist activity is determined by the ability of the compounds to compete with ^125I-angiotensin II for binding to vascular angiotensin II receptors and by their ability to antagonize the contractile response to angiotensin II in the isolated rabbit aorta. In vivo activity is evaluated by the efficacy of the compounds to inhibit the pressor response to exogenous angiotensin II in conscious rats and to lower blood pressure in a rat model of renin dependent hypertension.
The radioligand binding assay is a modification of a method previously described in detail (Gunther et al., Circ. Res. 47:278, 1980). A particular fraction from rat mesenteric arteries is incubated in Tris buffer with 80 pM of ^125I-angiotensin II with or without angiotensin II antagonists for 1 hour at 25°C. The incubation is terminated by rapid filtration and receptor bound ^125I-angiotensin II trapped on the filter is quantitated with a gamma counter. The potency of angiotensin II antagonists is expressed as the IC50 which is the concentration of antagonist needed to displace 50% of the total specifically bound angiotensin II.

These results are taken from patent EP0563238B1, “IMIDAZOLYL-ALKENOIC ACIDS” (SMITHKLINE BEECHAM CORPORATION, priority 1990, dated 1992).

As a reminder, the IC50 is the concentration that inhibits the measured activity by half. The low end stands for greater potency in that assay, the high end for weaker potency in that assay. `CCCCc1ncc(/C=C(\Cc2cccs2)C(=O)O)n1-c1ccc(C(=O)O)cc1` [Example 1, (E)-3-[2-n-Butyl-1-{4-carboxyphenyl}-1H-imidazo-5-yl]-2-(2-thienyl)methyl-2-propenoic acid] showed an IC50 of approximately 250 nM.
